Here are results for three compounds from PMC3097170 (The Journal of pharmacology and experimental therapeutics, 2011).

The target of one experiment is DOR/MOR heteromers (Mus musculus, UniProt P32300+P42866). The class given is cell-based, murine.
The target of experiment [1] is T1, MOR (Mus musculus, UniProt P42866).
The target in experiment [2] is T2, DOR/MOR (Mus musculus, UniProt P32300+P42866).
Experiment [3] has as its target T3, DOR (Mus musculus, UniProt P32300).
Experiment [4] has as its target T1, MOR. This is another data set of the same source.
For a further experiment, the target named is MOR homomers (Mus musculus, UniProt P42866). The class given is cell-based, murine. Particulars: DOR/MOR co-expressing cells.
For experiment [5], the target named is T3, DOR. This is another data set of the same source.
A further experiment has as its target DOR homomers (Mus musculus, UniProt P32300). The class given is cell-based, murine.
The target of experiment [6] is T2, DOR/MOR. Description: cell-based.
Experiment [7] has as its target MOR. Conditions: cited from earlier work.
Experiment [8] deals with T3, DOR. Nature of the experiment: cell-based. Conditions: Log IC50.
Experiment [9] relates to DOR. Particulars: cited from earlier work.

Several values for one entry are separate records, joined by “and”; a condition that tells them apart may be missing. Equal entries are not always repeated. Structures can show the parent of a compound that is named as a salt. Where two headings read alike, the source gives them in different places.

T3 sequence (P32300 whole entry): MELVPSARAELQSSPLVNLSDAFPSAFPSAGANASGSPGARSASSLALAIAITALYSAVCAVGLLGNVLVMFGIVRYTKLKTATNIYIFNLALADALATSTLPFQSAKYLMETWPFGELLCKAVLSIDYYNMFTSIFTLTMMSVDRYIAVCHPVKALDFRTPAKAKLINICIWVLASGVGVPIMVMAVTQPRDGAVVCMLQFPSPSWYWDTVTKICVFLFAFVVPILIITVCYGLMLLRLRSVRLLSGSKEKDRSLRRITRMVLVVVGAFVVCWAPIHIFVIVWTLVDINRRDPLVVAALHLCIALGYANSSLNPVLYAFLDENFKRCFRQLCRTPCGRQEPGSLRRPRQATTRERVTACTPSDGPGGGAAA
Sequence of DOR/MOR heteromers (P42866 whole entry): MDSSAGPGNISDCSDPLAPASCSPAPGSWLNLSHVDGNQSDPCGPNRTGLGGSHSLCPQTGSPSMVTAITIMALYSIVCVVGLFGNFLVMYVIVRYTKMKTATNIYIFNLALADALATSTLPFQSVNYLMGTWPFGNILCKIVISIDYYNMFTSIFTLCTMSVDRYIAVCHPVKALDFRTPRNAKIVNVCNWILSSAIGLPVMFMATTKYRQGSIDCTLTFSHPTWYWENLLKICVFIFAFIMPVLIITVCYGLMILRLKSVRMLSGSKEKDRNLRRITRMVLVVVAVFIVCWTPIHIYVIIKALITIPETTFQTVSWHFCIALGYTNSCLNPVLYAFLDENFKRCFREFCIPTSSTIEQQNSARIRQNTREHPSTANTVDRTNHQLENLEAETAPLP
Sequence of DOR/MOR heteromers (P32300 whole entry): as the sequence (P32300 whole entry) above
T1 sequence (P42866 whole entry): as the sequence (P42866 whole entry) above
T2 sequence (P42866 whole entry): as above
T2 sequence (P32300 whole entry): as the sequence (P32300 whole entry) above
Sequence of MOR homomers (P42866 whole entry): as the sequence (P42866 whole entry) above
Sequence of DOR homomers (P32300 whole entry): as the sequence (P32300 whole entry) above

Take `C[C@@H](NC(=O)[C@@H](N)Cc1ccc(O)cc1)C(=O)NCC(=O)N(C)[C@@H](Cc1ccccc1)C(=O)NCCO` [DAMGO, [D-Ala2, NMe-Phe4, Gly-ol5]-enkephalin]: the “agonist-induced endocytosis of DOR/MOR heteromers” value at DOR/MOR heteromers is listed as “promoted endocytosis”. Moreover, the “Emax (RFU)” value at MOR [1] was 735 ± 51 RFU; on DOR/MOR [2] it was 956 ± 56 RFU; on DOR [3], 582 ± 55 RFU. The “agonist-induced endocytosis of MOR” value on MOR [4] (1 μM agonist, 30 minutes, cells expressing MOR alone) is “endocytosed”. For the same compound, on MOR homomers (1 μM, 30 minutes), the “agonist-induced endocytosis of MOR homomers” value is recorded as “promoted endocytosis”. Moreover, the “agonist-induced endocytosis of DOR” value on DOR [5] is given as “not endocytosed”. Further, the “agonist-induced endocytosis of DOR homomers” value on DOR homomers is listed as “but not DOR homomers”.
Consider `Oc1ccc2c3c1O[C@H]1c4oc5ccccc5c4C[C@@]4(O)[C@@H](C2)N(CC2CC2)CC[C@]314` [NTB, naltriben mesylate], for which the 50% inhibitory concentration (IC50) – broadly, the concentration that gives 50% inhibition – against DOR/MOR [6] was 251 nM; at DOR [8], 158 nM and 126 nM. The “inhibition of methadone- and DAMGO-induced endocytosis of DOR/MOR heteromers” value against DOR/MOR heteromers was “significantly inhibited”. Also, the “inhibition of DAMGO-mediated signaling” value at MOR [1] is 52 ± 4%. The “inhibition of methadone-mediated signaling” value at MOR [1] amounted to 63 ± 10%. Also, the Ki – broadly, a dissociation constant, usually derived from enzyme kinetics or from competition with a known ligand – at MOR [7] (read-out: Ki for MOR, ref Raynor et al., 1994, Kim et al., 2001) is 12 nM; on DOR [9] (read-out: Ki for DOR, ref Raynor et al., 1994, Kim et al., 2001), 0.013 nM. The “% of maximal inhibition” value is 34 ±7 ^### % and 31 ± 5 % on DOR/MOR [2]; 87 ± 2% and 87 ± 12% on DOR [3]. Moreover, the “block of DPDPE signaling” value on DOR/MOR [2] and at DOR [3] was “effectively blocked signaling” throughout. Also, the “inhibition of MOR endocytosis in cells expressing only MOR” value on MOR [4] was “did not block endocytosis”. The “inhibition of methadone- and DAMGO-induced endocytosis of MOR homomers” value against MOR homomers (NTB 0.05 μM to 1 μM, 20 minutes) is reported as “inhibited by the highest concentration”. On DOR [5], the “inhibition of DOR endocytosis in response to DPDPE” value was “did block endocytosis”. For the same compound, the “fold higher affinity for DOR over MOR” value in the experiment on DOR [9] (DOR over MOR, ref Raynor et al., 1994, Kim et al., 2001) is > 100 fold.
For `Oc1ccc2c3c1O[C@H]1c4[nH]c5ccccc5c4C[C@@]4(O)[C@@H](C2)N(CC2CC2)CC[C@]314` [NTI, Naltrindole hydrochloride], the IC50 is 126 nM against DOR/MOR [6]; 63.1 nM and 251 nM against DOR [8]. Moreover, the “inhibition of methadone- and DAMGO-induced endocytosis of DOR/MOR heteromers” value against DOR/MOR heteromers is “significantly and selectively inhibited”. The Ki on MOR [7] (read-out: Ki for MOR, reference not given) was 64 nM; on DOR [9] (read-out: Ki for DOR, reference not given), 0.02 nM. The “% of maximal inhibition” value on DOR/MOR [2] is 79 ± 6% and 48 ± 6%; on DOR [3] it was 81 ± 3% and 94 ± 1%. Besides, the “Log IC50” value at DOR/MOR [2] is reported as −6.9 ± 0.1.
